Values belong to the compound of their own block, whether it stands above or below them. Calls of active or inactive are those of the source. No cut-off for these calls is given here.
Assays:
[1] = tested on: A2780; assay: Antiproliferative activity against human A2780 cells after 48 hrs by MTT assay; settings: A2780, 48 h
[2] = tested on: A549; assay: cells; settings: Homo sapiens, A549, 48 h
[3] = tested on: HUVEC; assay: cells; settings: Homo sapiens, 48 h
Description: Antiproliferative activity against HUVEC after 48 hrs by MTT assay

[4] = Antiproliferative activity against human A2780/CDDP cells after 48 hrs by MTT assay
[5] = tested on: HeLa; assay: cells; settings: Homo sapiens, 48 h
[6] = tested on: A2780; assay: Cell cycle arrest in human A2780 cells assessed as accumulation at G2/M phase after 24 hrs by propidium iodide staining-based flow cytometry; assay type: functional
[7] = Acute toxicity in KM mouse assessed as survival at 200 mg/kg, ip measured on day 14 relative to vehicle-treated control; assay type: organism-based; design: dose 200 mg/kg, route intraperitoneal; settings: in vivo
[8] = tested on: A2780; assay: Cell cycle arrest in human A2780 cells assessed as reduction at G0/G1 phase at 20 to 80 nM after 24 hrs by propidium iodide staining-based flow cytometry; assay type: functional
[9] = Acute toxicity in KM mouse assessed as survival at 225 mg/kg, ip measured on day 14 relative to vehicle-treated control; assay type: organism-based; design: dose 225 mg/kg, route intraperitoneal; settings: in vivo
[10] = tested on: MDA-MB-231; assay: Anticlonogenic activity against human gemcitabine-resistant human MDA-MB-231 cells assessed as inhibition of colony formation of cells at 20 to 80 nM after 48 hrs by gentian violet staining-based assay; assay type: functional, cell-based
[11] = tested on: A2780; assay: Induction of nitric oxide generation in human A2780 cells at 100 uM after 150 mins by Griess assay; assay type: functional
[12] = Acute toxicity in KM mouse assessed as survival at 250 mg/kg, ip measured on day 14 relative to vehicle-treated control; assay type: organism-based; design: dose 250 mg/kg, route intraperitoneal; settings: in vivo
[13] = tested on: A2780; assay: Induction of apoptosis in human A2780 cells assessed as increase in PARP-1 cleavage at 100 to 1000 nM after 24 hrs by Western blotting analysis; assay type: functional, cell-based
[14] = tested on: A2780; assay: Antitumor activity against human A2780 cells xenografted in BALB/C nude mouse at 15 mg/kg, ip administered once every 3 days measured on day 15 relative to vehicle-treated control; assay type: functional; settings: route intraperitoneal, read-out: TGI
[15] = tested on: HUVEC; assay: Antiangiogenic activity against HUVEC assessed as disruption of tubule formation at 100 nM after overnight incubation by matrigel assay; assay type: functional, cell-based; settings: Homo sapiens
[16] = Antiproliferative activity against human SKOV3 cells after 48 hrs by MTT assay; settings: SK-OV-3, 48 h
[17] = tested on: A2780; assay: Antitumor activity against human A2780 cells xenografted in BALB/C nude mouse assessed as loss in tumor weight at 15 to 30 mg/kg, ip administered once every 3 days measured after 15 days relative to vehicle-treated control; assay type: functional, organism-based
[18] = tested on: A2780; assay: Induction of apoptosis in human A2780 cells assessed as increase in p53 phosphorylation at 100 to 1000 nM after 24 hrs by Western blotting analysis; assay type: functional, cell-based
[19] = tested on: A2780; assay: Anticlonogenic activity against human A2780 cells assessed as inhibition of colony formation of cells after 48 hrs by gentian violet staining-based assay; assay type: functional, cell-based
[20] = Acute toxicity in KM mouse assessed as survival at 500 mg/kg, ip measured on day 14 relative to vehicle-treated control; assay type: organism-based; design: dose 500 mg/kg, route intraperitoneal; settings: in vivo
[21] = tested on: A2780; assay: Anticlonogenic activity against human A2780 cells assessed as inhibition of colony formation of cells at 5 to 20 nM after 48 hrs by gentian violet staining-based assay; assay type: functional, cell-based
[22] = Antiproliferative activity against cisplatin-resistant human SKOV3 cells after 48 hrs by MTT assay; settings: SK-OV-3, 48 h
[23] = Antiproliferative activity against human T29 cells after 48 hrs by MTT assay; settings: T29, 48 h
[24] = Acute toxicity in KM mouse assessed as survival at 275 mg/kg, ip measured on day 14 relative to vehicle-treated control; assay type: organism-based; design: dose 275 mg/kg, route intraperitoneal; settings: in vivo
[25] = tested on: T29; assay: Induction of nitric oxide generation in human T29 cells at 100 uM after 150 mins by Griess assay; assay type: functional, cell-based
[26] = tested on: A2780; assay: Induction of apoptosis in human A2780 cells assessed as late apoptotic cells at 20 to 80 nM after 24 hrs by annexin-V/propidium iodide staining-based flow cytometry; assay type: functional
[27] = tested on: A2780; assay: Induction of apoptosis in human A2780 cells assessed as early apoptotic cells at 20 to 80 nM after 24 hrs by annexin-V/propidium iodide staining-based flow cytometry; assay type: functional
[28] = tested on: A2780; assay: Antitumor activity against human A2780 cells xenografted in BALB/C nude mouse at 30 mg/kg, ip administered once every 3 days measured on day 15 relative to vehicle-treated control; assay type: functional; settings: route intraperitoneal, read-out: TGI
[29] = tested on: A2780; assay: Induction of apoptosis in human A2780 cells assessed as increase in Bax protein expression after 24 hrs by Western blotting analysis; assay type: functional, cell-based
[30] = tested on: A2780/CDDP; assay: Induction of nitric oxide generation in human A2780/CDDP cells at 500 nM after 24 hrs by Griess assay in presence of hemoglobin; assay type: functional, cell-based
[31] = Acute toxicity in ip dosed KM mouse; assay type: organism-based; settings: in vivo
[32] = tested on: MDA-MB-231; assay: Anticlonogenic activity against human gemcitabine-resistant human MDA-MB-231 cells assessed as inhibition of colony formation of cells after 48 hrs by gentian violet staining-based assay; assay type: functional, cell-based
[33] = Acute toxicity in KM mouse assessed as survival at 300 mg/kg, ip measured on day 14 relative to vehicle-treated control; assay type: organism-based; design: dose 300 mg/kg, route intraperitoneal; settings: in vivo
[34] = tested on: HUVEC; assay: Antiangiogenic activity against HUVEC assessed as suppression of tubule formation at 10 nM after overnight incubation by matrigel assay; assay type: functional, cell-based; settings: Homo sapiens
[35] = tested on: A2780; assay: Induction of nitric oxide generation in human A2780 cells after 1 hr by DAF-FM DA staining-based assay; assay type: functional, cell-based
[36] = tested on: A2780; assay: Induction of nitric oxide generation in human A2780 cells at 500 nM after 24 hrs by Griess assay in presence of hemoglobin; assay type: functional, cell-based
[37] = tested on: A2780; assay: Induction of apoptosis in human A2780 cells assessed as reduction in Bcl-2 protein expression after 24 hrs by Western blotting analysis; assay type: functional, cell-based
[38] = tested on: A2780; assay: Induction of nitric oxide generation in human A2780 cells at 100 to 1000 nM after 1 hr by DAF-FM DA staining-based assay; assay type: functional, cell-based
[39] = tested on: A2780; assay: Cell cycle arrest in human A2780 cells assessed as reduction at S phase at 20 to 80 nM after 24 hrs by propidium iodide staining-based flow cytometry; assay type: functional
[40] = tested on: A2780; assay: Cell cycle arrest in human A2780 cells assessed as accumulation at G2/M phase at 20 to 80 nM after 24 hrs by propidium iodide staining-based flow cytometry; assay type: functional
[41] = tested on: MDA-MB-231; assay: Antiproliferative activity against human MDA-MB-231 cells after 48 hrs by MTT assay; settings: MDA-MB-231, 48 h
[42] = tested on: MDA-MB-231; assay: Antiproliferative activity against gemcitabine-resistant human MDA-MB-231 cells after 48 hrs by MTT assay; settings: MDA-MB-231, 48 h

SMILES: Cc1cc(=O)oc2cc(OCC(=O)OCCOc3no[n+]([O-])c3S(=O)(=O)c3ccccc3)ccc12
- IC50 [1]: 3650 nM
- IC50 [2]: 6920 nM
- IC50 [3]: > 20000 nM
- IC50 [4]: 7360 nM
- IC50 [5]: 4310 nM

SMILES: Cc1cc(=O)oc2cc(OCCOc3no[n+]([O-])c3S(=O)(=O)c3ccccc3)ccc12
- IC50 [1]: 14 nM
- Activity [6]: Dose-dependent effect
- survival at 14 day [7]: 100%
- Activity [8]: Active
- survival at 14 day [9]: 90%
- inhibition [10]: Active
- Activity [11]: 97 µM
- survival at 14 day [12]: 60%
- IC50 [2]: 24 nM
- Activity [13]: Active
- inhibition in vivo at 15 mg/kg [14]: 55.8%
- Activity [15]: Active
- IC50 [16]: 83 nM
- IC50 [3]: 34 nM
- Activity [17]: Active
- Activity [18]: Active
- inhibition [19]: Dose-dependent effect
- survival at 14 day [20]: 10%
- inhibition [21]: Active
- IC50 [22]: 140 nM
- IC50 [23]: 14 nM
- survival at 14 day [24]: 40%
- Activity [25]: Active
- Activity [26]: 2.5%
- Activity [27]: 2.5%
- inhibition in vivo at 30 mg/kg [28]: 65.5%
- Activity [29]: Dose-dependent effect
- Activity [30]: inactive
- LD50 [31]: 264 mg/kg
- inhibition [32]: Dose-dependent effect
- IC50 [4]: 62 nM
- survival at 14 day [33]: 30%
- Activity [34]: Active
- Activity [35]: Dose-dependent effect
- Activity [36]: inactive
- Activity [37]: Dose-dependent effect
- Activity [38]: Active
- Activity [39]: Active
- Activity [40]: 64.9%
- IC50 [5]: 53 nM

SMILES: Cc1cc(=O)oc2cc(OCCCCOc3no[n+]([O-])c3S(=O)(=O)c3ccccc3)ccc12
- IC50 [1]: 660 nM
- IC50 [2]: 650 nM
- IC50 [3]: 250 nM
- IC50 [4]: 990 nM
- IC50 [5]: 320 nM

SMILES: Nc1ccn([C@@H]2O[C@H](CO)[C@@H](O)C2(F)F)c(=O)n1 [GEMCITABINE]
- IC50 [41]: 25 nM
- IC50 [42]: > 10000 nM

SMILES: Cc1cc(=O)oc2cc(O)ccc12 [HYMECROMONE]
- IC50 [1]: > 2000 nM
- IC50 [23]: > 2000 nM

SMILES: CCc1cc(=O)c2ccc(OCCCOc3no[n+]([O-])c3S(=O)(=O)c3ccccc3)cc2o1
- IC50 [1]: 290 nM
- IC50 [2]: 400 nM
- IC50 [3]: 350 nM
- IC50 [4]: 890 nM
- IC50 [5]: 190 nM

SMILES: Cc1cc(=O)oc2cc(N(C)CCOc3no[n+]([O-])c3S(=O)(=O)c3ccccc3)ccc12
- IC50 [1]: 950 nM
- IC50 [2]: 1020 nM
- IC50 [3]: 890 nM
- IC50 [4]: 2380 nM
- IC50 [5]: 510 nM

SMILES: Cc1cc(=O)oc2cc(Oc3no[n+]([O-])c3S(=O)(=O)c3ccccc3)ccc12
- IC50 [1]: 2990 nM
- IC50 [2]: 5550 nM
- IC50 [3]: 5430 nM
- IC50 [4]: 3150 nM
- IC50 [5]: > 20000 nM

Continued, in another order:

- IC50 [1]: 130 nM
- IC50 [2]: 3290 nM
- IC50 [5]: > 20000 nM
SMILES: CCc1cc(=O)c2ccc(Oc3no[n+]([O-])c3S(=O)(=O)c3ccccc3)cc2o1
- IC50 [3]: 3350 nM
- IC50 [4]: 2990 nM

- IC50 [1]: 170 nM
- IC50 [2]: 260 nM
- IC50 [5]: 110 nM
SMILES: O=c1ccc2ccc(OCCOc3no[n+]([O-])c3S(=O)(=O)c3ccccc3)cc2o1
- IC50 [3]: 370 nM
- IC50 [4]: 200 nM

- IC50 [1]: 46 nM
- IC50 [2]: 1000 nM
- IC50 [5]: 250 nM
SMILES: Cc1cc(=O)oc2c(C)c(OCCOc3no[n+]([O-])c3S(=O)(=O)c3ccccc3)ccc12
- IC50 [3]: 97 nM
- IC50 [4]: 330 nM

— ChEMBL document CHEMBL3352047, “Hybrids of phenylsulfonylfuroxan and coumarin as potent antitumor agents” (J Med Chem, 2014)
